System: chicken embryonic stem cells
Experiment: Titration kill curve of chicken ES cells under puromycin or neomycin selection
Type: cell-based
Parameters: key to Morphology of cES cells: ES cells are present.; ES cells are differentiated.; gone: no morphologically recognizable cells are present
Protocol: In a preferred embodiment, the concentration of puromycin required for selecting transfected cells is calculated as a titration kill curve. Titration kill curves for chicken embryonic stem cells are established by exposing cells in culture to puromycin concentrations varying from 0.0 to 1.0 μg/ml for 10 days (Table 7) and neomycin concentrations varying from 0.0 to 200 μg/ml (Table 8). The medium is changed every 2 days and fresh puromycin or neomycin is added. […] Puromycin concentrations of 0.3-1.0 μg/ml are used for selection of the transfected cultures. Neomycin concentrations over 40 μg/ml eliminated all cES cells within 7 days (Table 8).

neomycin
Diff: Morphology of cES cells (neomycin 30 μg/ml, day 9) | Morphology of cES cells (neomycin 100 μg/ml, day 2)
dead: Morphology of cES cells (neomycin 40 μg/ml, day 7) | Morphology of cES cells (neomycin 100 μg/ml, day 3) | Morphology of cES cells (neomycin 150 μg/ml, day 2) | Morphology of cES cells (neomycin 150 μg/ml, day 3) | Morphology of cES cells (neomycin 200 μg/ml, day 2)
Diff/: Morphology of cES cells (neomycin 30 μg/ml, day 10) | Morphology of cES cells (neomycin 40 μg/ml, day 6) | Morphology of cES cells (neomycin 50 μg/ml, day 6)
ES/Diff: Morphology of cES cells (neomycin 30 μg/ml, day 7) | Morphology of cES cells (neomycin 40 μg/ml, day 5) | Morphology of cES cells (neomycin 50 μg/ml, day 4) | Morphology of cES cells (neomycin 50 μg/ml, day 5) | Morphology of cES cells (neomycin 100 μg/ml, day 1)
gone: Morphology of cES cells (neomycin 40 μg/ml, day 8) | Morphology of cES cells (neomycin 40 μg/ml, day 9) | Morphology of cES cells (neomycin 40 μg/ml, day 10) | Morphology of cES cells (neomycin 50 μg/ml, day 8) | Morphology of cES cells (neomycin 50 μg/ml, day 9) | Morphology of cES cells (neomycin 50 μg/ml, day 10) | Morphology of cES cells (neomycin 60 μg/ml, day 4) | Morphology of cES cells (neomycin 60 μg/ml, day 5) | Morphology of cES cells (neomycin 60 μg/ml, day 6) | Morphology of cES cells (neomycin 60 μg/ml, day 7) | Morphology of cES cells (neomycin 60 μg/ml, day 8) | Morphology of cES cells (neomycin 60 μg/ml, day 9) | Morphology of cES cells (neomycin 60 μg/ml, day 10) | Morphology of cES cells (neomycin 100 μg/ml, day 4) | Morphology of cES cells (neomycin 100 μg/ml, day 5) | Morphology of cES cells (neomycin 100 μg/ml, day 6) | Morphology of cES cells (neomycin 100 μg/ml, day 7) | Morphology of cES cells (neomycin 100 μg/ml, day 8) | Morphology of cES cells (neomycin 100 μg/ml, day 9) | Morphology of cES cells (neomycin 100 μg/ml, day 10) | Morphology of cES cells (neomycin 150 μg/ml, day 4) | Morphology of cES cells (neomycin 150 μg/ml, day 5) | Morphology of cES cells (neomycin 150 μg/ml, day 6) | Morphology of cES cells (neomycin 150 μg/ml, day 7) | Morphology of cES cells (neomycin 150 μg/ml, day 8) | Morphology of cES cells (neomycin 150 μg/ml, day 9) | Morphology of cES cells (neomycin 150 μg/ml, day 10) | Morphology of cES cells (neomycin 200 μg/ml, day 3) | Morphology of cES cells (neomycin 200 μg/ml, day 4) | Morphology of cES cells (neomycin 200 μg/ml, day 5) | Morphology of cES cells (neomycin 200 μg/ml, day 6) | Morphology of cES cells (neomycin 200 μg/ml, day 7) | Morphology of cES cells (neomycin 200 μg/ml, day 8) | Morphology of cES cells (neomycin 200 μg/ml, day 9) | Morphology of cES cells (neomycin 200 μg/ml, day 10)
over 40 μg/ml: concentration that eliminated all cES cells (neomycin, within 7 days)
ES/diff: Morphology of cES cells (neomycin 30 μg/ml, day 8)
Dead/: Morphology of cES cells (neomycin 50 μg/ml, day 7)
ES: Morphology of cES cells (neomycin 10 μg/ml, day 1) | Morphology of cES cells (neomycin 10 μg/ml, day 2) | Morphology of cES cells (neomycin 10 μg/ml, day 3) | Morphology of cES cells (neomycin 10 μg/ml, day 4) | Morphology of cES cells (neomycin 10 μg/ml, day 5) | Morphology of cES cells (neomycin 10 μg/ml, day 6) | Morphology of cES cells (neomycin 10 μg/ml, day 7) | Morphology of cES cells (neomycin 10 μg/ml, day 8) | Morphology of cES cells (neomycin 10 μg/ml, day 9) | Morphology of cES cells (neomycin 10 μg/ml, day 10) | Morphology of cES cells (neomycin 20 μg/ml, day 1) | Morphology of cES cells (neomycin 20 μg/ml, day 2) | Morphology of cES cells (neomycin 20 μg/ml, day 3) | Morphology of cES cells (neomycin 20 μg/ml, day 4) | Morphology of cES cells (neomycin 20 μg/ml, day 5) | Morphology of cES cells (neomycin 20 μg/ml, day 6) | Morphology of cES cells (neomycin 20 μg/ml, day 7) | Morphology of cES cells (neomycin 20 μg/ml, day 8) | Morphology of cES cells (neomycin 20 μg/ml, day 9) | Morphology of cES cells (neomycin 20 μg/ml, day 10) | Morphology of cES cells (neomycin 30 μg/ml, day 1) | Morphology of cES cells (neomycin 30 μg/ml, day 2) | Morphology of cES cells (neomycin 30 μg/ml, day 3) | Morphology of cES cells (neomycin 30 μg/ml, day 4) | Morphology of cES cells (neomycin 30 μg/ml, day 5) | Morphology of cES cells (neomycin 30 μg/ml, day 6) | Morphology of cES cells (neomycin 40 μg/ml, day 1) | Morphology of cES cells (neomycin 40 μg/ml, day 2) | Morphology of cES cells (neomycin 40 μg/ml, day 3) | Morphology of cES cells (neomycin 40 μg/ml, day 4) | Morphology of cES cells (neomycin 50 μg/ml, day 1) | Morphology of cES cells (neomycin 50 μg/ml, day 2) | Morphology of cES cells (neomycin 50 μg/ml, day 3) | Morphology of cES cells (neomycin 60 μg/ml, day 1) | Morphology of cES cells (neomycin 60 μg/ml, day 2) | Morphology of cES cells (neomycin 60 μg/ml, day 3)
